# Reference: PMC11985910 (Nature Communications, 2025)
# Read-outs that look alike come from different tables or passages of the source.
# Tests used:
# MPO [1] = target: T1, MPO (Homo sapiens, UniProt P05164); experiment: MPO chlorination assay; format: biochemical
# [2] = for drug concentration in peritoneal lavage fluid: 5 h after gavage
# VAP-1 = VAP-1 (Mus musculus, UniProt O70423); experiment: VAP-1 activity in adipose tissue; format: in vivo; conditions: 6 h; oral SNT-8370 60 mg/kg, PXS-4707 6 mg/kg
# VAP-1, sequence (O70423 whole entry): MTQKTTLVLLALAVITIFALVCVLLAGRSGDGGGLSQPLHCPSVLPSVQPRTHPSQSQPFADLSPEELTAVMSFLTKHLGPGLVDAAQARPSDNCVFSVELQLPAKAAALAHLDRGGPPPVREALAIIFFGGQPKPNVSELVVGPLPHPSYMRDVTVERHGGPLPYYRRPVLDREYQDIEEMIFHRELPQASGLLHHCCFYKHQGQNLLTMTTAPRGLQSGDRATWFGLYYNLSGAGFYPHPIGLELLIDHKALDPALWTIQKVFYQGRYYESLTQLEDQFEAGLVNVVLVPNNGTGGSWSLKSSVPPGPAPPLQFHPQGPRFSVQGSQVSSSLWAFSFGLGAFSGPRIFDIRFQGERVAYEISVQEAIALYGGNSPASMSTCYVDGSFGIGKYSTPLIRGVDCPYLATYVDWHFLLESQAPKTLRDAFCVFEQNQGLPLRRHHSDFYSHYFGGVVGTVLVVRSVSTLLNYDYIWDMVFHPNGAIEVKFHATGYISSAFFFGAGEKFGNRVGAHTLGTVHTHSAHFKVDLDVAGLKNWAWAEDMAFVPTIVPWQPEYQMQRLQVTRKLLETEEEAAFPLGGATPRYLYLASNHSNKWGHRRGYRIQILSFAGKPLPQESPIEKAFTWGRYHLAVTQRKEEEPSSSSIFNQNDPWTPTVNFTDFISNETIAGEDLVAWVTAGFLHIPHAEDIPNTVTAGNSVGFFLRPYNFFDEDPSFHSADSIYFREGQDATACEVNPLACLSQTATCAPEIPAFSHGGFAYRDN
# [3] = system: thioglycolate broth-induced peritoneal leucocyte infiltration; experiment: Peritonitis leucocyte trafficking model; format: in vivo, mouse; conditions: 6 h; oral SNT-8370 60, verdiperstat 60, PXS-4707 6 mg/kg
# in vivo = format: in vivo, C57Bl/6J mice; conditions: mouse
# native human MPO = native human MPO (Homo sapiens, UniProt P05164); experiment: MPO-catalysed H2O2 consumption, Amplex Red assay; format: biochemical
# native human MPO, sequence (P05164 279-745): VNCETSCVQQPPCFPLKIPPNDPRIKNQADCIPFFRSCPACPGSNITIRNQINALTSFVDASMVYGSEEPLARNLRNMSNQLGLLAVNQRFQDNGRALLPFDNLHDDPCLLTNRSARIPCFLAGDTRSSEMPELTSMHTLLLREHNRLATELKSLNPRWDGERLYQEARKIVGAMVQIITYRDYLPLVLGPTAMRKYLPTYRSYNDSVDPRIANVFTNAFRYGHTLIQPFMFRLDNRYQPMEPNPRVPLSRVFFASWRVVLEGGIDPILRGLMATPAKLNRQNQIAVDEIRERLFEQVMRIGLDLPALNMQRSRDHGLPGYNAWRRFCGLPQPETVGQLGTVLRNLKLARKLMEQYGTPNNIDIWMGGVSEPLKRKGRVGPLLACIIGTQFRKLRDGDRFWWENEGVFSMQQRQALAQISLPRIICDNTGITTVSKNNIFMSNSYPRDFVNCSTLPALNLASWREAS
# native human MPO, sequence (P05164 165-273): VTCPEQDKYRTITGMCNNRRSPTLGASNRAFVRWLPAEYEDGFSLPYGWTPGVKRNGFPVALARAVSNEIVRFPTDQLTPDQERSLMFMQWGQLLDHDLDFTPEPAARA
# HepG2 cells = format: cell-based; conditions: tested up to 100 μM in HepG2 cells
# MAO-A, human = MAO-A, human (Homo sapiens, UniProt P21397); experiment: MAO-A activity assay; format: biochemical; conditions: compared to MPO or VAP-1
# MAO-A, human, sequence (P21397 whole entry): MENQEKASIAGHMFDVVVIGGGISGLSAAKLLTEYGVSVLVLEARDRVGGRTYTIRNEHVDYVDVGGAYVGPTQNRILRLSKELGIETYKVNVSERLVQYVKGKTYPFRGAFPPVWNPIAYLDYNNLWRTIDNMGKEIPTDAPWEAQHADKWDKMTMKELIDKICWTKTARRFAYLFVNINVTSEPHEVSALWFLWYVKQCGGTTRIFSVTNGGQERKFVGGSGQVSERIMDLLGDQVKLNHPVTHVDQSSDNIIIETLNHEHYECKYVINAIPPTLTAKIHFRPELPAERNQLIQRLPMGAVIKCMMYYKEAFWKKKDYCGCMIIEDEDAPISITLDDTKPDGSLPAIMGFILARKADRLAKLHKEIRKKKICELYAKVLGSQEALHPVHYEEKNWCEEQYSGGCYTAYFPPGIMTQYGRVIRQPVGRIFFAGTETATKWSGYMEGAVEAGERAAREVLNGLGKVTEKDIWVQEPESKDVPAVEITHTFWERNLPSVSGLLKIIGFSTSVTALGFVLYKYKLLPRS
# [4] = system: LPS-induced lung leucocyte infiltration; experiment: Acute lung injury; format: in vivo, mouse; conditions: 6 h post-LPS; oral SNT-8370 30, verdiperstat 30, PXS-4707 10 mg/kg
# [5] = system: λ-carrageenan-induced leucocyte infiltration and oedema; experiment: Carrageenan air pouch model; format: in vivo, mouse; conditions: for leucocyte influx into the air pouch at 4-h: oral SNT-8370 30, verdiperstat 15, PXS-4707 6, dexamethasone 10 mg/kg
# LOX, human = LOX, human (Homo sapiens, UniProt P28300); experiment: LOX activity assay; format: biochemical; conditions: compared to MPO or VAP-1
# LOX, human, sequence (P28300 169-417): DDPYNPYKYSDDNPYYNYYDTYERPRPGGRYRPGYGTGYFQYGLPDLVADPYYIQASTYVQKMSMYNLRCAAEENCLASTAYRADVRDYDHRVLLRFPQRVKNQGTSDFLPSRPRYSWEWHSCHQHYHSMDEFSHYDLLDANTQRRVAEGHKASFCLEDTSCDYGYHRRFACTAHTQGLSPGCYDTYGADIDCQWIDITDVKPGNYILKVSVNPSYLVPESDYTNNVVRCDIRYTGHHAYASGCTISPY
# recombinant human VAP-1 = recombinant human VAP-1 (Homo sapiens, UniProt Q16853); format: biochemical; conditions: 30 μM, 40 min, 37 °C
# recombinant human VAP-1, sequence (Q16853 34-763): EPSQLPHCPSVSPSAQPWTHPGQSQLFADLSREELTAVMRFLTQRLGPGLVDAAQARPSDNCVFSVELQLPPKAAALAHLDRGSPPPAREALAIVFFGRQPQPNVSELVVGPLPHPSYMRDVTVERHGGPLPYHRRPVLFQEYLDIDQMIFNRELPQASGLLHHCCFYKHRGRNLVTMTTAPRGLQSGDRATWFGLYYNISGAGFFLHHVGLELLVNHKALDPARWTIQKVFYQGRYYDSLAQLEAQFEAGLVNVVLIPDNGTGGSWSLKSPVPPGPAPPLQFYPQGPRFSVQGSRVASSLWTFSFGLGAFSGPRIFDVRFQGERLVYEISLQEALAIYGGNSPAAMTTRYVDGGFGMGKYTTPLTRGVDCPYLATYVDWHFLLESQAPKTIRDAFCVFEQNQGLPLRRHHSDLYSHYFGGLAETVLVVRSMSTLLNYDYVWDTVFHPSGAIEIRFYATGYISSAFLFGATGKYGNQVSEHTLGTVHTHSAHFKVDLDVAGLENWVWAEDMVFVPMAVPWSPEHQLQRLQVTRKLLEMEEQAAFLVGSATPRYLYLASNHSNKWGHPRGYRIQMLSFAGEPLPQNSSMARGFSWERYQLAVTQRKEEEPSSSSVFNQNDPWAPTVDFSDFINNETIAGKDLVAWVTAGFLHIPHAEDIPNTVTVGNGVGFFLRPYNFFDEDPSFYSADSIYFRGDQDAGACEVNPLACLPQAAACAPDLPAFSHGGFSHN
# human DAO = human DAO (Homo sapiens, UniProt P19801); format: biochemical; conditions: 30 μM, 40 min, 37 °C
# human DAO, sequence (P19801 20-751): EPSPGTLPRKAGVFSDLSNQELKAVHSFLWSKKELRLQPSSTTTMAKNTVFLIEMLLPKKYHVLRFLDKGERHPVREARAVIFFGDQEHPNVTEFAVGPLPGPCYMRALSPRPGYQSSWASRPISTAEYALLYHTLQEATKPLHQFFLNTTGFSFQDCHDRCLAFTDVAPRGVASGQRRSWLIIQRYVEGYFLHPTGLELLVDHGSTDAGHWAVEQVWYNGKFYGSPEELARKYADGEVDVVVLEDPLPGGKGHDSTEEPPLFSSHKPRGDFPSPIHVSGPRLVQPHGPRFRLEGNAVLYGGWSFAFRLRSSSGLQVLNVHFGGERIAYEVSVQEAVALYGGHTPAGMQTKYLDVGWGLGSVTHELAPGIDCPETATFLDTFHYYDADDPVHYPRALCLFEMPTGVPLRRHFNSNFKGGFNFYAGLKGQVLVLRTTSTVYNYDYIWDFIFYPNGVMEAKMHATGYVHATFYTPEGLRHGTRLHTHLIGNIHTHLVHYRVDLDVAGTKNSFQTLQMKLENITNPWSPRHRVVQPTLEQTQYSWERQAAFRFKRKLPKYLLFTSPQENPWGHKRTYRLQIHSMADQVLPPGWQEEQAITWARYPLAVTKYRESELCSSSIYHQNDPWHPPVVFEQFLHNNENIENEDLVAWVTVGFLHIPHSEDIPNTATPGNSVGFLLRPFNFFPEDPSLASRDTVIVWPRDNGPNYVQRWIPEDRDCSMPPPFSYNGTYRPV
# [6] = system: myocardial ischaemia/reperfusion injury; experiment: Myocardial infarction; format: in vivo, rat; conditions: 60 mg/kg oral twice daily, 4 weeks
# MPO [7] = target: T1, MPO; experiment: MPO partition ratio assay; format: biochemical; conditions: mean ± SEM, n = 3; MPO 60 nM, 2 μM H2O2
# MPO [8] = target: T1, MPO; experiment: MPO LDL lipid peroxidation assay; format: biochemical
# [9] = system: panel of 14 common transporters; format: in vitro ADME, human; conditions: 30 µM; 14 targets screened
# MPO [10] = target: MPO (Mus musculus, UniProt P11247); experiment: Acute peritonitis; format: in vivo; conditions: for reduction of peritoneal MPO activity: oral 60 mg/kg; for effect on lavage fluid MPO protein concentration (ELISA): thioglycolate broth/zymosan A-treated mice
# MPO (Mus musculus, UniProt P11247), sequence (P11247 139-718): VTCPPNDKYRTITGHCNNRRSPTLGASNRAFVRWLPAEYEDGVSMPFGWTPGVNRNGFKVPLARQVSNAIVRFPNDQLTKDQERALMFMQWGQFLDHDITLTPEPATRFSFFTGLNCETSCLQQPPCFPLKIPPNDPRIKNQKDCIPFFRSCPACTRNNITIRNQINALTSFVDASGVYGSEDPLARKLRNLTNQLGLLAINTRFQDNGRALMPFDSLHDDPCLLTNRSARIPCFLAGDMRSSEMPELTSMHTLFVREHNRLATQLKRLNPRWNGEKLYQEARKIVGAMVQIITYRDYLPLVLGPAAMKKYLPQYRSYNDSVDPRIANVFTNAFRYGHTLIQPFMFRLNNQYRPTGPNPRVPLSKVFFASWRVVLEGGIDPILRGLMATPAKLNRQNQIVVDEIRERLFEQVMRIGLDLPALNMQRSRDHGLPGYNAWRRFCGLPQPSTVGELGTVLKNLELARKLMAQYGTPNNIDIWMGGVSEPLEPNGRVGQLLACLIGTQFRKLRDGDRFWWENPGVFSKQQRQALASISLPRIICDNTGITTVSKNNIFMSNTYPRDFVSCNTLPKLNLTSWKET
# MPO [11] = target: T1, MPO; experiment: MPO-catalysed H2O2 consumption, H2O2-specific electrode; format: biochemical
# [12] = system: panel of 68 enzymes, receptors, ion channels and transporters; conditions: 10 µM; 68 targets screened
# [13] = SNT-8370 30, verdiperstat 15, PXS-4707 6, dexamethasone 10 mg/kg
# T1 sequence (P05164 279-745): as the sequence (P05164 279-745) above
# T1 sequence (P05164 165-273): as the sequence (P05164 165-273) above
smiles,measurement,setting,value
"NC/C(=C\F)COc1cccc(Cn2c(=S)[nH]c(=O)c3[nH]cnc32)c1 [SNT-8370, (E)-3-(3-((2-(aminomethyl)-3-fluoroallyl)oxy)benzyl)-2-thioxo-1,2,3,7-tetrahydro-6H-purin-6-one]","fold lower IC50 than verdiperstat or PF06282999, HOCl production",MPO [1],2–5 fold
same,drug concentration in peritoneal lavage fluid,[2]; oral 10 mg/kg,1.1 ng/mL
same,drug concentration in peritoneal lavage fluid,[2]; oral 30 mg/kg,1.5 ng/mL
same,"drug concentration in peritoneal lavage fluid, molar equivalent",[2]; oral 60 mg/kg,0.17 µM
same,drug concentration in peritoneal lavage fluid,[2]; oral 60 mg/kg,~ 60 ng/mL
same,"drug concentration in peritoneal lavage fluid, molar equivalent",[2]; oral 10 and 30 mg/kg,< 0.004 µM
same,inhibition of in vivo VAP-1 activity in adipose tissue,VAP-1,> 90%
same,neutrophils in the peritoneum,[3],significantly reduced
same,total immune cells (leucocytes) in the peritoneum,[3],significantly reduced
same,half-life,"in vivo; C57Bl/6J, in vivo, po",2 to 4 h
same,time of highest drug concentrations after oral gavage,in vivo,1 h
same,drug in the brain,in vivo; oral gavage,No drug was detectable
same,MPO IC50 more potent than AZD5904,native human MPO,~ 3 fold
same,MPO IC50 more potent than verdiperstat,native human MPO,~ 2 fold
same,Cell health (cytotoxicity),HepG2 cells,no toxicity
same,selectivity index over MAO-A,"MAO-A, human",> 1000 fold
same,lung infiltration of neutrophils (BALF),[4],significantly reduced
same,lung infiltration of total leucocytes (BALF),[4],significantly reduced
same,air pouch exudate volume at 12-h,[5]; SNT-8370 10 mg/kg,significantly reduced
same,air pouch exudate volume at 12-h,[5]; [13],significantly reduced
same,leucocyte influx into the air pouch at 4-h,[5],significantly reduced
same,selectivity index over LOX,"LOX, human",> 1000 fold
same,"Substrate turnover, VAP-1",recombinant human VAP-1,No oxidative turnover
same,"Substrate turnover, DAO",human DAO,no turnover observed
same,"cardiac fibrosis (picrosirius red, Masson's trichrome, periostin)",[6],significantly reduce
same,ejection fraction post-MI,[6],prevented the significant post-MI reduction
same,fractional shortening post-MI,[6],prevented the significant post-MI reduction
same,partition ratio for MPO inhibition,MPO [7],15.7 ± 2.4
same,IC50,MPO [8],0.02 µM
same,"fold lower IC50 than verdiperstat, LDL lipid peroxidation",MPO [8],30 fold
same,"Eurofins Transporter screen, hits (>50% inhibition)",[9],no significant inhibition
same,effect on peritoneal MPO activity,MPO [10]; oral 10 mg/kg,no effect
same,effect on peritoneal MPO activity,MPO [10]; oral 30 mg/kg,no effect
same,reduction of peritoneal MPO activity,MPO [10],> 50%
same,effect on lavage fluid MPO protein concentration (ELISA),MPO [10],no effect
same,"fold lower IC50 than verdiperstat or PF06282999, H2O2 consumption",MPO [11],5-8 fold
same,"Eurofins PanLabs screen, hits (>50% inhibition)",[12],No significant off-targets
"CC(C)OCCn1c(=S)[nH]c(=O)c2[nH]ccc21 [Verdiperstat, reference compound]",drug concentration in peritoneal lavage fluid,[2]; oral 60 mg/kg,> 10 ng/mL
same,neutrophils in the peritoneum,[3],Neither of the monotherapy treatments showed a significant effect
same,total immune cells (leucocytes) in the peritoneum,[3],Neither of the monotherapy treatments showed a significant effect
same,lung infiltration of neutrophils (BALF),[4],non-significant downward trends
same,lung infiltration of total leucocytes (BALF),[4],non-significant downward trends
same,air pouch exudate volume at 12-h,[5]; [13],"neither verdiperstat nor PXS-4707, significantly reduced"
same,leucocyte influx into the air pouch at 4-h,[5],significantly reduced
same,IC50,MPO [8],0.6 µM
same,reduction of peritoneal MPO activity,MPO [10],> 50%
same,effect on lavage fluid MPO protein concentration (ELISA),MPO [10],no effect
C[C@@H]1C[C@H]2[C@@H]3CCC4=CC(=O)C=C[C@]4(C)[C@@]3(F)[C@@H](O)C[C@]2(C)[C@@]1(O)C(=O)CO [dexamethasone],air pouch exudate volume at 12-h,[5]; [13],significantly reduced
same,leucocyte influx into the air pouch at 4-h,[5],significantly reduced
